pKi: −log10 of the molar value. Entries after “also recorded” stand apart in the source; their conditions may differ.
Assays:
[1] = test system: monoclonal antibody P3 6D4; test: Ester hydrolysis by monoclonal antibody P3 6D4, HPLC; type: biochemical, mouse; details: pH 8.0
Procedure: FIG. 3 illustrates the rate of hydrolysis of a carboxylic ester (Compound 7) determined by HPLC under the conditions described in Table 1 (50 mM phosphate buffer at pH 8.0 and 23 degrees C). ( ) Uncatalyzed (background)rate of hydrolysis. (.quadrature.) Effect of 0.5 micromolar non-specific monoclonal IgG. ( ) 0.1 Micromolar anti-Compound 4 monoclonal antibody from hybridoma P3 6D4. The superimposed curve represents a theoretical exponential decay which fits the data points.
In particular, an exemplary monoclonal receptor was produced by the standard hybridoma technology of Kohler et al., Nature, 256, 495 (1975). Specifically, female 129G1X^+ mice were immunized by intraperitoneal injection with an inoculum of 100 micrograms of conjugate (e.g., Compound 4i bound to KLH) in 300 microliters of a 1:1 mixture of phosphate buffered saline (PBS) pH 7.4 and complete Freund's adjuvant. Two weeks later, the mice were again injected in a like manner with 50 micrograms of the foregoing conjugate in 300 microliters of a 1:1 mixture of PBS (pH 7.4) and 10 mg/ml alum. After an additional eight weeks, the mice were immunized intravenously with 50 micrograms of the conjugate in 200 microliters of PBS (pH 7.4). The spleens were removed from the mice 4 days later, and the spleen cells were fused to myeloma cells.
(§1) The lack of spectroscopic distinction between such esters and their hydrolysis products recommended a chromatographic analysis of the process. Referring to FIG. 3, a mixture of Compound 7 (5 uM) and the monoclonal antibody from hybridoma P3 6D4 (0.1 uM) in phosphate buffer (50 mM, pH 8.0) was analyzed over time by high performance liquid chromatography (HPLC). The accelerated hydrolysis of the ester was apparent from the decrease of its peak and the concurrent increase in two new peaks that correspond with the expected products. Under these conditions, the ester is completely consumed in 60-80 minutes during which time the background rate accounts for about 12 to 16 percent hydrolysis. The chromatographic profile is the same as that produced by treatment with hog liver esterase.
(§2) *Hydrolysis of carboxylic esters by monoclonal antibody (from hybridoma P
(§3) 6D4) and by hog liver esterase (Sigma Chemical Co., St. Louis, MO, EC
(§4) 3.1.1.1) determined by HPLC on an analytical RPC18 column (Vydac 218TP54)
(§5) with isocratic elution [acetonitrile: water plus 0.1 percent
(§6) trifluoroacetic acid; (35:65)] at a flow rate of 1.0 ml/min and the
(§7) detector set at 245 nm. The initial substrate concentration was 5
(§8) micromolar and that the internal standard (acetophenone) was 10 microm
(§9) olar in 50 mM phosphate buffer at pH 8.0. The retention times (minutes)
(§10) were as follows: acetophenone, 5.0; Compound 7, 8.3; Compound 8, 6.7;
(§11) Compound 9, 4.1; Compound 10, 11.1 (40 percent acetonitrile elution);
(§12) Compound 11, 8.2. The antibody concentration was 15 micrograms/ml (0.1
(§13) micromolar) and that of esterase was 5.5 micrograms/ml. The reaction
(§14) mixtures were kept at 25 degrees C. and aliquots were analyzed at
(§15) intervals of 2 to 20 minutes. Three or more determinations were used to
(§16) plot a curve from which the halflife of the reaction is estimated (see

[2] = test system: monoclonal receptor P3 6D4; test: Stoichiometric transacylation reaction of monoclonal receptor P3 6D4 with coumarin ester Compound 5 (fluorescence) and its inhibition/inactivation; type: biochemical, mouse
Procedure: A Perkin-Elmer LS-5 fluorescence spectrometer was operated at a fixed wavelength, using 355 nanometers (nm) for excitation and measuring the emission at 455 nm. A stock solution of the coumarin ester 5 was prepared in dioxane and was diluted to the desired concentrations in Tris-HCl (50 mM, pH 7) or sodium phosphate (50 mM, pH 4-9).
Reactions were run at 23 degrees C and were initiated by the addition of an aliquot of antibody solution (1 mg/ml) to substrate solutions to provide a final protein concentration of 100 nM. Final fluorescence values were determined by hydrolysis of the substrate with pig liver esterase. The observed reaction rate was corrected for spontaneous hydrolysis. Reaction kinetics were studied by measuring initial rates under pseudo-first order conditions. Active protein concentration was extrapolated from fluorescence values at the end of the reaction. The kinetic parameters were obtained by fitting the data to a hyperbolic curve and from double reciprocal plots. Inhibition constants were determined from the Lineweaver-Burk plot data with at least five inhibitor concentrations. All the data were studied by a least squares analysis.
Antibody preparations were inactivated without introducing fluorescent products by the addition of the activated ester (Compound 8) in dioxane to a solution of the IgG (5 mg/ml) in Tris-HCl (50 mM, pH 6.5) at a ratio of 5 moles of the ester (Compound 8) per mole IgG.
Protein modification was performed in an analogous manner, by the addition of a dioxane solution of the reagent at a known concentration to the antibody. The solution was incubated for 30 minutes before filtration through Sephadex G-25. The activity remaining was compared to control samples. Aliquots of IgG (5 mg/ml) inactivated with the ester (Compound 8) were diluted with four volumes of phosphate buffer (50 mM, pH 4-9, at intervals of 1 pH unit). Any pH change was recorded, and the sample was stored at 4 degrees C for 24 hours.
(§17) Initially, the ester was used at a concentration that was about four-fold greater than that of the protein, and the mixture was incubated at pH 7.2 for 10 minutes. Any change in fluorescence above background was noted.
The termination of the reaction is noted by the return of the rate of fluorescence increase to the background level.

hog liver esterase = type: biochemical; details: pig, 5 µM, pH 8
Procedure: as §1, §2, §3, §4, §5, §6, §7, §8, §9, §10, §11, §12, §13, §14, §15, §16

P2 50D8 = test: Catalytic hydrolysis by receptor P2 50D8; type: biochemical, mouse
Procedure: (§18) Two further catalytic monoclonal receptors were similarly prepared by another fusion using Compound 2i linked to an antigenic carrier as immunogen. Those two catalytic receptor molecules and their hybridomas were designated "P2 50D8" and "P2 57G4".
(§19) In one study, twenty-eight monoclonal anti-hapten antibodies to phosphonate 2i from two separate fusion experiments were assayed. […] Antibodies to Compound 4i as hapten were assayed in the same manner. Twelve gamma-globulins were screened as described above. Compound 5 is homologous only in the acyl portion of this larger hapten; however, all but three of these cross-reacted with smaller phosphonate 2 in an ELISA assay as described herein. For two of these there was observed a fluorescence change, occurring in the first 5 minutes of incubation, which corresponds to about 50 percent of that for complete hydrolysis. The background rate of hydrolysis was reestablished after this initial reaction leveled off.

[3] = Spontaneous (uncatalyzed, background) hydrolysis; type: physicochemical; details: spectrophotometric at 245 nm, initial rates at five ester concentrations; figure = k × 10^5
Procedure: as §17, with “The practical range of pH for the assay is limited by the rapid spontaneous rate of hydrolysis of an ester Compound 5 above pH 8.0. Initially,” for “Initially,”
as §1
^c The rate constants were determined spectrophotometrically (at 245
nm) by measuring initial rates at five concentrations of ester.
^1 Preliminary initial hydrolyses shown as the percentage of admixed
reactant ligand consumed for catalyzed and spontaneous hydrolyses. "--" =
No hydrolysis observed. "NT" = Not tried. All reactions were carried out
at pH 8.0 in a 50 mM phosphate buffer unless otherwise noted. Hydrolytic
percentages were determined by HPLC using a Hitachi model 655A12 liquid
chromatograph with a C18 Vydac 201TP54 column, except as noted below.
Mixtures of acetonitrile a nd water containing 0.1 percent trichloroaceti
acid [28:72-50:50 (v/v)] were used as elutant. Hydrolyses of Compounds 5
and 20 were assayed using fluorescence data.
^5 Spontaneous hydrolytic percentages for the time period indicated.
(§20) Reaction kinetics were studied using three reactant ligands as substrates for monoclonal receptors 37G2 and 22F5. Data from initial rates were consistent with Michaelis-Menten reaction mechanism for a usual enzyme-substrate system. Initial rates were followed using at 271 nm using a U.V.-visible spectorphotometer for Compound 17, and a fluorescence spectrometer for Compounds 5 and 20, using an excitation wavelength of 355 nm and an emission wavelength of 455 nm for both compounds.

P2 57G4 = test: Catalytic hydrolysis by receptor P2 57G4; type: biochemical, mouse
Procedure: as §18, §19

Monoclonal Receptor 22F5 = test: Kinetics of hydrolysis by receptor 22F5; type: biochemical, mouse; details: figure = Ki × 10^7
Description: as §20
(§21) Lineweaver-Burke plots for the catalyzed hydrolysis of Compounds 17, 5 and 20 obtained in the presence and absence of Compound 12i as inhibitor were prepared as discussed for FIG. 4. In particular, Compound 17 was present at concentrations of 1-16 uM with inhibitor concentrations of 100 and 300 nanomolar (nM). Compound 5 was present at concentrations of 1-10 uM with inhibitor concentrations of 100 and 200 nM. Compound 20 was present at concentrations of 2-20 uM with inhibitor concentrations of 25 and 100 nM.
*Fluorescence assays using Compounds 20 and 5 were carried out in a
PerkinElmer fluorescence spectrophotometer (moded LS5; Oakbrook, IL) usin
200 nanomolar receptor (based on a molecular weight of 150,000 daltons) i
(§22) 50 mM phosphate buffer at a pH value of 8.0. The reactant ligand was
(§23) dissolved in dioxane and admixed in the amounts discussed above. Two
(§24) milliliters of reaction solution were utilized as was a dioxane
concentration of 2 percent by volume. […]

Monoclonal Receptor 37G2 = test: Kinetics of hydrolysis by receptor 37G2; type: biochemical, mouse; details: inhibitor Compound 12i (100 and 300 nM), substrate Compound 17; figure = Ki × 10^7
Description: as §20
as §21, with “100 nM. […]” for “100 nM.”
as §22, §23, §24
concentration of 2 percent by volume. Assays with Compound 17 as reac tan
ligand utilized 500 nanomolar receptor (based on a molecular weight of
150,000 daltons) in the above buffer, using the reactant ligand dissolved
in dioxane and a total dioxane concentration of 2 percent by volume.

t1/2 Esterase (hog liver esterase) [min]	catalytic hydrolysis by P2 50D8 (P2 50D8)	catalytic hydrolysis by P2 57G4 (P2 57G4)	Compound	accelerated hydrolysis by P3 6D4 (substrate acceptance) [1]	kuncat [3] [s⁻¹]	other results
2	–	–	O=C(Cc1ccc(NC(=O)C(F)(F)F)cc1)Oc1ccccc1 [Compound 10]	no effect on the hydrolytic rate; also recorded: not catalyzed	–	stoichiometric antibody reaction (release of alcohol) [2]: Neither is the stoichiometric reaction apparent
4	capable of catalytically hydrolyzing	capable of catalytically hydrolyzing	CC(=O)Nc1ccc(CC(=O)Oc2ccc(NC(C)=O)cc2)cc1 [Compound 9]	not accepted as substrates	25000	–
–	–	–	Cc1ccc2cccc(NP(=O)(O)Cc3ccc(NC(=O)CCCC(=O)ON4C(=O)CCC4=O)cc3)c2n1 [Compound 13]	–	–	decomposition (Chemical stability; pH 3.5 and 6.2): No signs of decomposition; stability at zero degrees C (Chemical stability; zero degrees C, over 5 days): stable
5	capable of catalytically hydrolyzing	capable of catalytically hydrolyzing	CC(=O)Nc1ccc(CC(=O)Oc2ccc(NC(=O)C(F)(F)F)cc2)cc1 [Compound 11]	not manifested by the accelerated hydrolysis	610000	–
–	–	–	COC(=O)c1cccc(C(=O)NCc2cc(NC(=O)CCCCC(=O)ON3C(=O)CCC3=O)ccc2OP(=O)(O)Cc2ccc(NC(=O)C(F)(F)F)cc2)n1 [Compound 4i]	–	–	hydrolytic stability (NHS group) (Chemical stability; store at zero degrees C in a dessicator): prone to hydrolysis
–	–	–	Cc1ccc2cccc(NP(=O)(O)Cc3ccc(NC(=O)C(F)(F)F)cc3)c2n1 [Compound 12i]	–	–	pKi (Monoclonal Receptor 22F5; inhibitor Compound 12i (25 and 100 nM), substrate Compound 20): 7.15; pKi (Monoclonal Receptor 22F5; inhibitor Compound 12i (100 and 200 nM), substrate Compound 5): 6.96; pKi (Monoclonal Receptor 37G2): 6.85; stability (Chemical stability; pH 3.5-7.3, room temperature): at least 11 days

Source: patent US5126258A (priority 1988, dated 1992)
